Drawing on publication PMC2248166, “Quantitative peptide binding motifs for 19 human and mouse MHC class I molecules derived using positional scanning combinatorial peptide libraries” (Immunome Research, 2008), this text covers IC50 for 27 molecules.

Where a SMILES comes first, the peptide text is derived from it.

This assay deals with HLA A*3201 (Homo sapiens, UniProt P04439, A270S/D101S/D185E/E176V/E277Q/F133L/G103R/G107R/G231S/H175R/I121M/I218V/I322F/K168Q/L105A/L300P/L318F/M331R/P208A/P217A/Q94H/R106L/R138Q/S129P/T104I/T323A/T345S/V100E/V321M/V358M). Nature of the assay: biochemical. Type of assay: binding.

What is called IC50 is the concentration at which inhibition is half-maximal. In turn, `CC[C@H](C)[C@H](NC(=O)[C@H](Cc1ccccc1)NC(=O)[C@H](CC(C)C)NC(=O)[C@@H](NC(=O)[C@@H](N)CC(C)C)[C@@H](C)CC)C(=O)N[C@@H](CO)C(=O)N[C@H](C(=O)N1CCC[C@H]1C(=O)N[C@@H](Cc1ccccc1)C(=O)O)[C@@H](C)CC` [3102.0290] (H-LILFISIPF-OH) had an IC50 of 25 nM.
`CC[C@H](C)[C@H](NC(=O)[C@H](CCCCN)NC(=O)[C@H](Cc1ccccc1)NC(=O)[C@H](CCSC)NC(=O)[C@@H](N)[C@@H](C)O)C(=O)N[C@H](C(=O)N[C@@H](Cc1ccc(O)cc1)C(=O)N[C@@H](CO)C(=O)N[C@@H](CC(C)C)C(=O)O)C(C)C` [3102.0291] (H-TMFKIVYSL-OH) displayed an IC50 of 0.92 nM.
`CC(C)C[C@H](NC(=O)[C@@H](NC(=O)[C@H](Cc1ccc(O)cc1)NC(=O)[C@H](CCCNC(=N)N)NC(=O)[C@H](CC(C)C)NC(=O)[C@H](CCC(=O)O)NC(=O)[C@H](Cc1ccc(O)cc1)NC(=O)[C@@H](NC(=O)[C@@H](N)C(C)C)[C@@H](C)O)[C@@H](C)O)C(=O)O` [3102.0294] (H-VTYELRYTL-OH): inhibition was half-maximal at 12 nM (IC50).
To `CC(C)C[C@H](NC(=O)CNC(=O)[C@H](C)NC(=O)[C@@H](NC(=O)[C@H](C)N)[C@@H](C)O)C(=O)N[C@@H](Cc1c[nH]cn1)C(=O)N[C@@H](CC(C)C)C(=O)NCC(=O)N[C@@H](Cc1ccccc1)C(=O)O` [3102.0295] (H-ATAGLHLGF-OH) belongs 1.7 nM.
`CC[C@H](C)[C@H](NC(=O)[C@H](Cc1ccccc1)NC(=O)[C@@H](NC(=O)[C@H](CCC(N)=O)NC(=O)[C@@H](N)CCCNC(=N)N)[C@@H](C)CC)C(=O)N[C@@H](Cc1c[nH]cn1)C(=O)N[C@@H](Cc1ccc(O)cc1)C(=O)N[C@@H](CO)C(=O)N[C@H](C(=O)O)C(C)C` [3102.0296] (H-RQIFIHYSV-OH) displayed an IC50 of 1 nM.
The figure for `CC[C@H](C)[C@H](NC(=O)[C@@H](NC(=O)[C@H](CC(C)C)NC(=O)[C@H](CO)NC(=O)[C@H](CCC(N)=O)NC(=O)[C@H](Cc1ccccc1)NC(=O)[C@H](CC(=O)O)NC(=O)[C@H](CCC(N)=O)NC(=O)[C@H](C)N)[C@@H](C)O)C(=O)O` [3102.0299] (H-AQDFQSLTI-OH) is 68 nM.
The figure for `CC[C@H](C)[C@H](N)C(=O)N[C@@H](CC(C)C)C(=O)N[C@@H](Cc1ccc(O)cc1)C(=O)N[C@@H](Cc1ccc(O)cc1)C(=O)N[C@@H](CC(C)C)C(=O)N[C@@H](CO)C(=O)N[C@@H](C)C(=O)N[C@@H](CCCCN)C(=O)N[C@H](C(=O)O)[C@@H](C)CC` [3102.0300] (H-ILYYLSAKI-OH) is 8.9 nM.
In turn, `CC(C)C[C@H](NC(=O)[C@H](Cc1ccc(O)cc1)NC(=O)[C@H](CC(N)=O)NC(=O)[C@H](Cc1ccccc1)NC(=O)[C@H](Cc1c[nH]c2ccccc12)NC(=O)[C@H](CC(C)C)NC(=O)[C@H](CC(C)C)NC(=O)[C@@H](N)CC(C)C)C(=O)N[C@@H](Cc1ccccc1)C(=O)O` [3102.0301] (H-LLLWFNYLF-OH) came in with an IC50 of 1.5 nM.
The figure for `CC[C@H](C)[C@H](NC(=O)[C@H](Cc1ccccc1)NC(=O)[C@@H](NC(=O)[C@@H](NC(=O)[C@@H](N)CO)[C@@H](C)CC)[C@@H](C)CC)C(=O)N[C@@H](CC(N)=O)C(=O)N[C@@H](Cc1ccc(O)cc1)C(=O)N[C@H](C(=O)N[C@@H](CCSC)C(=O)O)[C@@H](C)O` [3102.0303] (H-SIIFINYTM-OH) is 6.5 nM; for `CC[C@H](C)[C@H](NC(=O)[C@H](CO)NC(=O)[C@H](CO)NC(=O)[C@@H](NC(=O)[C@H](CO)NC(=O)[C@H](Cc1ccccc1)NC(=O)[C@@H](NC(=O)[C@@H](N)CO)[C@@H](C)O)[C@@H](C)CC)C(=O)N[C@@H](Cc1ccccc1)C(=O)O` [3102.0305] (H-STFSISSIF-OH) it is 1.1 nM.
Turning to `CC[C@H](C)[C@H](NC(=O)[C@@H](NC(=O)[C@H](Cc1ccccc1)NC(=O)[C@H](Cc1ccccc1)NC(=O)[C@H](CC(C)C)NC(=O)[C@H](Cc1ccccc1)NC(=O)[C@H](CC(=O)O)NC(=O)[C@@H](NC(=O)[C@@H](N)CCCCN)[C@@H](C)CC)[C@@H](C)CC)C(=O)O` [3102.0306] (H-KIDFLFFII-OH), the 50% inhibitory concentration (IC50) stood at 2 nM.
In turn, `C[C@@H](O)[C@H](NC(=O)[C@H](CCCNC(=N)N)NC(=O)[C@H](CC(N)=O)NC(=O)[C@H](Cc1ccccc1)NC(=O)[C@@H](NC(=O)[C@@H](N)CCCNC(=N)N)[C@@H](C)O)C(=O)N[C@@H](Cc1c[nH]cn1)C(=O)N[C@@H](Cc1ccc(O)cc1)C(=O)N[C@@H](Cc1c[nH]c2ccccc12)C(=O)O` [3102.0309] (H-RTFNRTHYW-OH) yielded an IC50 of 0.24 nM.
The figure for `CC[C@H](C)[C@H](NC(=O)[C@H](CO)NC(=O)[C@H](CCC(N)=O)NC(=O)[C@H](CCC(N)=O)NC(=O)[C@H](CC(C)C)NC(=O)[C@H](Cc1ccccc1)NC(=O)[C@H](CC(C)C)NC(=O)[C@@H](NC(=O)[C@@H](N)CCCCN)C(C)C)C(=O)O` [3102.0312] (H-KVLFLQQSI-OH) is 0.7 nM; for `CC[C@H](C)[C@H](NC(=O)[C@@H](N)CO)C(=O)N[C@@H](Cc1ccc(O)cc1)C(=O)NCC(=O)N[C@@H](Cc1ccccc1)C(=O)NCC(=O)N[C@H](C(=O)N[C@H](C(=O)N[C@@H](Cc1ccccc1)C(=O)O)[C@@H](C)O)C(C)C` [3102.0314] (H-SIYGFGVTF-OH) it is 0.11 nM.
As for `CSCC[C@H](NC(=O)[C@H](CCCCN)NC(=O)[C@H](CC(N)=O)NC(=O)[C@H](CC(C)C)NC(=O)[C@@H](N)CCCCN)C(=O)N[C@H](C(=O)N[C@H](C(=O)N[C@@H](CCC(=O)O)C(=O)N[C@@H](CC(C)C)C(=O)O)C(C)C)[C@@H](C)O` [3102.0316] (H-KLNKMTVEL-OH), the IC50 came to 1.7 nM.
With `CC[C@H](C)[C@H](NC(=O)[C@@H](NC(=O)[C@@H](NC(=O)[C@H](Cc1ccccc1)NC(=O)[C@H](Cc1ccccc1)NC(=O)[C@@H](NC(=O)[C@H](CC(C)C)NC(=O)[C@@H](NC(=O)[C@@H](N)CO)[C@@H](C)O)[C@@H](C)CC)C(C)C)[C@@H](C)CC)C(=O)O` [3102.0317] (H-STLIFFVII-OH), 18 nM corresponded to half-maximal inhibition (IC50).
To `CC(C)[C@H](NC(=O)CNC(=O)[C@H](Cc1ccc(O)cc1)NC(=O)[C@@H](NC(=O)[C@@H](N)CCCNC(=N)N)[C@@H](C)O)C(=O)N[C@@H](CC(N)=O)C(=O)N[C@@H](Cc1ccc(O)cc1)C(=O)N[C@H](C(=O)N[C@@H](Cc1ccccc1)C(=O)O)[C@@H](C)O` [3102.0318] (H-RTYGVNYTF-OH) belongs 0.26 nM; to `CC[C@H](C)[C@H](NC(=O)[C@H](C)NC(=O)[C@H](CC(N)=O)NC(=O)[C@@H](NC(=O)[C@@H]1CCCN1C(=O)[C@H](CCC(=O)O)NC(=O)[C@@H](NC(=O)[C@H](CC(C)C)NC(=O)[C@@H](N)CCCCN)[C@@H](C)CC)C(C)C)C(=O)O` [3102.0321] (H-KLIEPVNAI-OH), 11 nM.
To `CC[C@H](C)[C@H](NC(=O)[C@H](CCC(=O)O)NC(=O)[C@H](Cc1ccccc1)NC(=O)[C@H](CO)NC(=O)[C@@H](N)CCCNC(=N)N)C(=O)N[C@H](C(=O)N[C@@H](CC(N)=O)C(=O)N[C@H](C(=O)N[C@@H](CC(C)C)C(=O)O)C(C)C)[C@@H](C)CC` [3102.0322] (H-RSFEIINVL-OH) belongs 2.9 nM; to `CC[C@H](C)[C@H](NC(=O)[C@H](CCCNC(=N)N)NC(=O)[C@H](CCC(N)=O)NC(=O)[C@H](C)NC(=O)[C@@H](NC(=O)[C@H](CC(N)=O)NC(=O)[C@H](Cc1ccccc1)NC(=O)[C@H](CC(C)C)NC(=O)[C@@H](N)CCCCN)[C@@H](C)CC)C(=O)O` [3102.0323] (H-KLFNIAQRI-OH), 1.6 nM.
To `CC[C@H](C)[C@H](NC(=O)[C@H](CC(N)=O)NC(=O)[C@H](CC(C)C)NC(=O)[C@@H](NC(=O)[C@@H](N)C(C)C)[C@@H](C)O)C(=O)N[C@@H](CO)C(=O)N[C@@H](CO)C(=O)N[C@@H](CCCCN)C(=O)N[C@@H](Cc1ccccc1)C(=O)O` [3102.0324] (H-VTLNISSKF-OH) belongs 11 nM.
Take `CC[C@H](C)[C@H](N)C(=O)N[C@H](C(=O)N[C@@H](CC(N)=O)C(=O)N[C@@H](CCCCN)C(=O)N[C@@H](Cc1ccccc1)C(=O)N[C@@H](Cc1ccccc1)C(=O)N[C@@H](CCC(=O)O)C(=O)N[C@H](C(=O)N[C@H](C(=O)O)[C@@H](C)CC)C(C)C)[C@@H](C)CC` [3102.0325] (H-IINKFFEVI-OH): half-maximal inhibition (IC50) required 11 nM.
To `CC[C@H](C)[C@H](NC(=O)[C@H](CC(C)C)NC(=O)[C@H](C)NC(=O)[C@@H](NC(=O)[C@H](C)N)[C@@H](C)O)C(=O)N[C@@H](CC(C)C)C(=O)N[C@H](C(=O)N[C@@H](CO)C(=O)N[C@@H](Cc1ccccc1)C(=O)O)C(C)C` [3102.0327] (H-ATALILVSF-OH) belongs 1.4 nM; to `CC[C@H](C)[C@H](NC(=O)[C@@H](NC(=O)[C@H](CC(C)C)NC(=O)[C@H](CC(C)C)NC(=O)[C@H](CC(C)C)NC(=O)[C@H](CO)NC(=O)[C@H](Cc1ccccc1)NC(=O)[C@H](CC(C)C)NC(=O)[C@@H](N)CO)C(C)C)C(=O)O` [3102.0328] (H-SLFSLLLVI-OH), 28 nM.
The figure for `CC[C@H](C)[C@H](NC(=O)[C@@H](NC(=O)[C@@H](NC(=O)[C@H](Cc1c[nH]cn1)NC(=O)[C@H](CC(C)C)NC(=O)[C@H](CCSC)NC(=O)[C@H](CC(N)=O)NC(=O)[C@H](CCC(N)=O)NC(=O)[C@@H](N)CCCCN)C(C)C)[C@@H](C)CC)C(=O)O` [3102.0329] (H-KQNMLHVII-OH) is 2.1 nM.
`CC[C@H](C)[C@H](NC(=O)[C@H](CO)NC(=O)[C@@H](NC(=O)[C@H](C)NC(=O)[C@@H](NC(=O)[C@H](CC(C)C)NC(=O)[C@H](CC(C)C)NC(=O)[C@@H](NC(=O)[C@@H](N)CCCCN)[C@@H](C)CC)C(C)C)C(C)C)C(=O)O` [3102.0330] (H-KILLVAVSI-OH) returned an IC50 of 1.5 nM.
The figure for `CC[C@H](C)[C@H](NC(=O)[C@H](CC(C)C)NC(=O)[C@H](CC(C)C)NC(=O)[C@@H](NC(=O)[C@H](Cc1ccccc1)NC(=O)[C@H](CO)NC(=O)[C@H](CC(N)=O)NC(=O)[C@@H](NC(=O)[C@@H](N)CO)C(C)C)[C@@H](C)O)C(=O)O` [3102.0331] (H-SVNSFTLLI-OH) is 2.6 nM.
